Measurements as given in ChEMBL document CHEMBL3627630, “Fragment-based discovery of potent ERK2 pyrrolopyrazine inhibitors” (Bioorg Med Chem Lett, 2015).

The compounds below were run against T1, Mitogen-activated protein kinase 1 (Homo sapiens, UniProt P28482) (assay: Inhibition of human recombinant ERK2 expressed in Escherichia coli using Omnia peptide S/T17 as substrate measured every 50 seconds for 30 mins).
T1 sequence (P28482 whole entry): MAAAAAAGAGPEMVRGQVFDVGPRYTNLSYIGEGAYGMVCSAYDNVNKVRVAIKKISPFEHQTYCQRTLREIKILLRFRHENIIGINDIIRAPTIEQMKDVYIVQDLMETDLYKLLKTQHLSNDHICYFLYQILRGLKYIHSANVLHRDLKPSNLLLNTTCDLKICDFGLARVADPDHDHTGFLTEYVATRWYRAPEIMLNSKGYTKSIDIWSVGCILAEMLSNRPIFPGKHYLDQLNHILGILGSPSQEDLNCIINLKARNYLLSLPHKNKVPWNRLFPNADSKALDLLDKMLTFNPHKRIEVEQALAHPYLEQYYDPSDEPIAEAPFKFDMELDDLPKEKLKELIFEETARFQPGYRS

| SMILES | IC50 |
| --- | --- |
| Cn1cc(-c2c[nH]c3ncc(-c4ccncc4)nc23)cn1 | 0.072 µM |

The compounds below were run against T1, Mitogen-activated protein kinase 1 (assay: Inhibition of ERK2 (unknown origin) using 5FAM-IPTSPITTTYFFFKKK as substrate after 1 hr by LC3K assay).

| SMILES | IC50 |
| --- | --- |
| Fc1cc(-c2cnc3[nH]ccc3n2)ccn1 | 21.6 µM |
| Fc1ccc(-c2cnc3[nH]ccc3n2)cc1 | 29.7 µM |
| c1ccc(CCn2cc(-c3c[nH]c4ncc(-c5ccncc5)nc34)cn2)cc1 | 2 µM |
| c1cc(-c2cnc3[nH]cc(-c4cncnc4)c3n2)ccn1 | 2.2 µM |
| c1cncc(-c2cnc3[nH]ccc3n2)c1 | 71.5 µM |
| CC(C)Cn1cc(-c2c[nH]c3ncc(-c4ccncc4)nc23)cn1 | 0.091 µM |
| c1cncc(-c2c[nH]c3ncc(-c4cn[nH]c4)nc23)c1 | 0.28 µM |
| Cn1cc(-c2cnc3[nH]ccc3n2)cn1 | 22.5 µM |
| c1cc(-c2cnc3[nH]cc(-c4cn[nH]c4)c3n2)ccn1 | 0.354 µM |
| CCn1cc(-c2c[nH]c3ncc(-c4ccncc4)nc23)cn1 | 0.149 µM |
| CCCn1cc(-c2c[nH]c3ncc(-c4ccncc4)nc23)cn1 | 0.071 µM |
| Cc1n[nH]c(C)c1-c1cnc2[nH]ccc2n1 | 14 µM |
| Cc1n[nH]cc1-c1cnc2[nH]ccc2n1 | 22.2 µM |
| c1cc2nc(-c3cn[nH]c3)cnc2[nH]1 | 5.9 µM |
| Oc1cccc(-c2cnc3[nH]ccc3n2)c1 | > 200 µM |
| Oc1ccc(-c2cnc3[nH]ccc3n2)cc1 | 12.4 µM |
| COc1ccc(-c2cnc3[nH]ccc3n2)cc1 | 89.7 µM |

| SMILES | IC50 |
| --- | --- |
| NC(=O)c1cccc(-c2cnc3[nH]ccc3n2)c1 | > 200 µM |
| c1cc(-c2cnc3[nH]ccc3n2)ccn1 | 11.7 µM |
| c1cc2nc(-c3ccc4cn[nH]c4c3)cnc2[nH]1 | 31.9 µM |
| c1cc(-c2cnc3[nH]cc(-c4cnn(CCN5CCOCC5)c4)c3n2)ccn1 | 0.416 µM |
| Clc1ccc(-c2c[nH]c3ncc(-c4ccncc4)nc23)cn1 | 0.182 µM |
| NC(=O)c1ccc(-c2cnc3[nH]ccc3n2)cc1 | 44.1 µM |
| Brc1cnc2[nH]ccc2n1 | > 200 µM |
| c1ncc(-c2c[nH]c3ncc(-c4cn[nH]c4)nc23)cn1 | 1.05 µM |
| COc1ccc(-c2c[nH]c3ncc(-c4ccncc4)nc23)cn1 | 0.252 µM |
| c1ccc(-c2cnc3[nH]ccc3n2)cc1 | 50.1 µM |
| c1cc(-c2cnc3[nH]cc(-c4ccn[nH]4)c3n2)ccn1 | 0.94 µM |
| Nc1ccc(-c2c[nH]c3ncc(-c4ccncc4)nc23)cn1 | 0.468 µM |
| Cc1ccc(-c2c[nH]c3ncc(-c4ccncc4)nc23)cn1 | 0.634 µM |
| c1cncc(-c2cnc3[nH]cc(-c4cccnc4)c3n2)c1 | 0.407 µM |
| OCCCn1cc(-c2c[nH]c3ncc(-c4ccncc4)nc23)cn1 | 0.623 µM |
| c1ccc(Cn2cc(-c3c[nH]c4ncc(-c5ccncc5)nc34)cn2)cc1 | 0.037 µM |

Each compound was assayed against T1, Mitogen-activated protein kinase 1 (assay: Binding affinity to ERK2 (unknown origin) by surface plasmon resonance assay).

| SMILES | Kd |
| --- | --- |
| c1ccc(CNc2ncnc3nc[nH]c23)cc1 [6-BENZYLAMINOPURINE] | 247 µM |
| Brc1c[nH]c2nccnc12 | 97 µM |
| c1cnc2[nH]ccc2n1 | 343 µM |
| Brc1cnc2[nH]cc(I)c2n1 | 125 µM |
| Brc1cnc2[nH]ccc2n1 | 319 µM |
